From PubChem BioAssay AID330 (DTP/NCI, 2004)
“And” between values parts separate entries of the source, which are not always exact repeats. Identical values can stand only once. Inconclusive results and toxic doses are left out. Rule for the calls: active = survival T/C of 150% or more; inactive = T/C below 125% in these data.

Test system: P388 leukemia ip, CD2F1 mice, survival T/C
Experiment: NCI In Vivo Anticancer Drug Screen. Data for tumor model P388 Leukemia (intraperitoneal) in CD2F1 (CDF1) mice
Settings: endpoint: median survival time, higher = longer survival
Outline: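 Mice carrying the transplanted tumor received test compound or vehicle. Survival was recorded in each group, and the value is the treated-group measurement divided by that of the vehicle-treated control group.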

[1] = dose: 60.0 mg/kg/injection, schedule: Q01DX005 (ip), vehicle: saline with Tween-80
[2] = dose: 60.0 mg/kg/injection, schedule: Q01DX005 (ip), vehicle: saline
[3] = dose: 120.0 mg/kg/injection, schedule: Q01DX005 (ip), vehicle: saline
[4] = dose: 240.0 mg/kg/injection, schedule: Q01DX005 (ip), vehicle: saline
[5] = dose: 50.0 mg/kg/injection, schedule: Q01DX001 (ip), vehicle: saline with Tween-80
[6] = dose: 50.0 mg/kg/injection, schedule: Q01DX005 (ip), vehicle: saline with Tween-80
[7] = dose: 50.0 mg/kg/injection, schedule: Q01DX009 (ip), vehicle: saline with Tween-80
[8] = dose: 100.0 mg/kg/injection, schedule: Q01DX009 (ip), vehicle: saline with Tween-80
[9] = dose: 120.0 mg/kg/injection, schedule: Q01DX005 (ip), vehicle: saline with Tween-80
[10] = dose: 240.0 mg/kg/injection, schedule: Q01DX005 (ip), vehicle: saline with Tween-80
[11] = dose: 50.0 mg/kg/injection, schedule: Q01DX009 (ip), vehicle: Klucel (hydroxypropylcellulose) (HPC)
[12] = dose: 100.0 mg/kg/injection, schedule: Q04DX003 (ip), vehicle: saline with Tween-80
[13] = dose: 200.0 mg/kg/injection, schedule: Q01DX009 (ip), vehicle: saline with Tween-80
[14] = dose: 200.0 mg/kg/injection, schedule: Q04DX003 (ip), vehicle: saline with Tween-80
[15] = dose: 400.0 mg/kg/injection, schedule: Q04DX003 (ip), vehicle: saline with Tween-80

Measured: T/C

O=C1CCCCC2CC2C1=O (centres undefined) (tested in a mixture with another compound)
inactive: dose: 50.0 mg/kg/injection, schedule: Q01DX009 (ip), vehicle: other 101 % of control | dose: 100.0 mg/kg/injection, schedule: Q01DX009 (ip), vehicle: other 100 % of control | dose: 200.0 mg/kg/injection, schedule: Q01DX009 (ip), vehicle: other 108 % of control

Cc1ccc(S(=O)(=O)N(CCCc2c(-c3ccccc3)nc(N)[nH]c2=O)c2ccccc2)cc1
inactive: dose: 3.75 mg/kg/injection, schedule: Q01DX005 (ip), vehicle: saline with Tween-80 102 % of control | dose: 7.5 mg/kg/injection, schedule: Q01DX005 (ip), vehicle: saline with Tween-80 94 % of control | dose: 15.0 mg/kg/injection, schedule: Q01DX005 (ip), vehicle: saline with Tween-80 107 % of control and 87 % of control | [1] 98 % of control and 90 % of control

CCOC(=O)C(NC(=O)c1ccccc1)(C(=O)OCC)c1ccccn1
inactive: [2] 99 % of control | [3] 99 % of control | [4] 105 % of control

C/C=C/C[P+](Cc1ccccc1)(c1ccccc1)c1ccccc1
inactive: dose: 0.78 mg/kg/injection, schedule: Q01DX009 (ip), vehicle: saline 105 % of control | dose: 1.56 mg/kg/injection, schedule: Q01DX009 (ip), vehicle: saline 113 % of control | dose: 3.13 mg/kg/injection, schedule: Q01DX009 (ip), vehicle: saline 107 % of control

COc1ccc(/C=N/Nc2nnc3c4cccnc4c4ccccc4c3n2)cc1OC
inactive: dose: 3.12 mg/kg/injection, schedule: Q01DX001 (ip), vehicle: saline with Tween-80 102 % of control and 87 % of control | dose: 6.25 mg/kg/injection, schedule: Q01DX001 (ip), vehicle: saline with Tween-80 100 % of control and 87 % of control | [5] 104 % of control and 112 % of control | dose: 100.0 mg/kg/injection, schedule: Q01DX001 (ip), vehicle: saline with Tween-80 100 % of control and 111 % of control | dose: 200.0 mg/kg/injection, schedule: Q01DX001 (ip), vehicle: saline with Tween-80 106 % of control and 114 % of control | dose: 400.0 mg/kg/injection, schedule: Q01DX001 (ip), vehicle: saline with Tween-80 107 % of control

COc1ccc(OC)c2c(Cl)ccnc12
inactive: dose: 12.5 mg/kg/injection, schedule: Q01DX005 (ip), vehicle: saline with Tween-80 99 % of control | dose: 25.0 mg/kg/injection, schedule: Q01DX005 (ip), vehicle: saline with Tween-80 103 % of control | [6] 97 % of control

CN(C)CCOc1ccc2c(c1)C(=O)/C(=C\c1ncc([N+](=O)[O-])n1C)C2
inactive: dose: 12.5 mg/kg/injection, schedule: Q01DX009 (ip), vehicle: saline with Tween-80 113 % of control | dose: 25.0 mg/kg/injection, schedule: Q01DX009 (ip), vehicle: saline with Tween-80 123 % of control and 94 % of control | [7] 121 % of control | [8] 123 % of control

COC(=O)c1cc(-c2ccccn2)[nH]c(=O)c1C#N
inactive: [2] 104 % of control | [3] 100 % of control | [4] 97 % of control

NC(CCCCNc1ccc([N+](=O)[O-])cc1[N+](=O)[O-])C(=O)NC(Cc1ccc(O)cc1)C(=O)O (centres undefined)
inactive: dose: 50.0 mg/kg/injection, schedule: Q01DX005 (ip), vehicle: saline + Tween-80 + alcohol 101 % of control | dose: 100.0 mg/kg/injection, schedule: Q01DX005 (ip), vehicle: saline + Tween-80 + alcohol 101 % of control | dose: 200.0 mg/kg/injection, schedule: Q01DX005 (ip), vehicle: saline + Tween-80 + alcohol 103 % of control

CCCCc1c(OCC)cc2n(CC)c3ccccc3n2c1=O
inactive: [1] 107 % of control | [9] 94 % of control | [10] 94 % of control

CCOC(=O)C(CCc1ccc(N(CCCl)CCCl)cc1)(NC(C)=O)C(=O)OCC
inactive: dose: 12.5 mg/kg/injection, schedule: Q01DX009 (ip), vehicle: Klucel (hydroxypropylcellulose) (HPC) 109 % of control | dose: 25.0 mg/kg/injection, schedule: Q01DX009 (ip), vehicle: Klucel (hydroxypropylcellulose) (HPC) 111 % of control | [11] 116 % of control

Cc1ccc2ccccc2c1N(CC(=O)O)S(=O)(=O)c1ccccc1 (tested in a mixture with another compound)
inactive: dose: 12.5 mg/kg/injection, schedule: Q01DX001 (ip), vehicle: saline with Tween-80 110 % of control | dose: 25.0 mg/kg/injection, schedule: Q01DX001 (ip), vehicle: saline with Tween-80 105 % of control | [5] 110 % of control

O=C1NC(=O)C(Cc2ccccc2)(Cc2ccccc2)C(=O)N1
inactive: [8] 90 % of control | [12] 110 % of control | [13] 95 % of control | [14] 100 % of control | dose: 400.0 mg/kg/injection, schedule: Q01DX009 (ip), vehicle: saline with Tween-80 95 % of control | [15] 110 % of control

CCn1cc(C(=O)O)c(=O)c2ccc(-c3cn(C)nc3C)nc21 (tested in a mixture with another compound)
inactive: dose: 50.0 mg/kg/injection, schedule: Q04DX002 (ip), vehicle: saline 99 % of control | dose: 100.0 mg/kg/injection, schedule: Q04DX002 (ip), vehicle: saline 99 % of control | dose: 200.0 mg/kg/injection, schedule: Q04DX002 (ip), vehicle: saline 98 % of control

Clc1ccc2c(NCCCC3CCCN4CCCCC34)ccnc2c1 (centres undefined)
inactive: dose: 50.0 mg/kg/injection, schedule: Q01DX005 (ip), vehicle: Klucel (hydroxypropylcellulose) (HPC) 99 % of control | dose: 100.0 mg/kg/injection, schedule: Q01DX005 (ip), vehicle: Klucel (hydroxypropylcellulose) (HPC) 98 % of control

CCOC(=O)NC(=S)Nc1nonc1-c1ccccc1
inactive: [1] 96 % of control | [9] 100 % of control | [10] 97 % of control

S=c1nc[nH]c2c1ncn2C1CCCC1
inactive: [12] 104 % of control | [14] 104 % of control | [15] 90 % of control

O=C1NNC=Nc2nc3c(cc21)CCCC3
inactive: dose: 60.0 mg/kg/injection, schedule: Q01DX005 (ip), vehicle: Klucel (hydroxypropylcellulose) (HPC) 98 % of control | dose: 120.0 mg/kg/injection, schedule: Q01DX005 (ip), vehicle: Klucel (hydroxypropylcellulose) (HPC) 92 % of control | dose: 240.0 mg/kg/injection, schedule: Q01DX005 (ip), vehicle: Klucel (hydroxypropylcellulose) (HPC) 94 % of control

COc1ccc(C(=O)c2ccccc2)cc1
inactive: [11] 105 % of control | dose: 100.0 mg/kg/injection, schedule: Q01DX009 (ip), vehicle: Klucel (hydroxypropylcellulose) (HPC) 108 % of control | dose: 200.0 mg/kg/injection, schedule: Q01DX009 (ip), vehicle: Klucel (hydroxypropylcellulose) (HPC) 102 % of control | dose: 400.0 mg/kg/injection, schedule: Q01DX009 (ip), vehicle: Klucel (hydroxypropylcellulose) (HPC) 98 % of control

CCn1c2ccccc2c2cc(N=Cc3cccc([N+](=O)[O-])c3)ccc21
inactive: [7] 97 % of control | [8] 98 % of control | [13] 88 % of control

COc1cccc2c(=O)c(COC(C)=O)c(C)[nH]c12
inactive: [2] 112 % of control | [3] 112 % of control | [4] 112 % of control

CCOC(=O)CNC(=O)NC(Cc1ccccc1)C(=O)OCC (centres undefined)
inactive: [6] 107 % of control | dose: 100.0 mg/kg/injection, schedule: Q01DX005 (ip), vehicle: saline with Tween-80 97 % of control

Cn1[nH]c(C(C)(C)O)cc1=O
inactive: dose: 100.0 mg/kg/injection, schedule: Q01DX001 (ip), vehicle: saline 107 % of control | dose: 200.0 mg/kg/injection, schedule: Q01DX001 (ip), vehicle: saline 97 % of control | dose: 400.0 mg/kg/injection, schedule: Q01DX001 (ip), vehicle: saline 101 % of control

N#CC(c1ccccc1)(N1CCOCC1)N1CCOCC1
inactive: dose: 6.25 mg/kg/injection, schedule: Q04DX003 (ip), vehicle: saline 101 % of control and 97 % of control | dose: 12.5 mg/kg/injection, schedule: Q04DX003 (ip), vehicle: saline 100 % of control and 101 % of control | dose: 25.0 mg/kg/injection, schedule: Q04DX003 (ip), vehicle: saline 100 % of control and 101 % of control (2×) | [12] 100 % of control

Cn1ccc2c1CC(=O)NC2=O
inactive: dose: 3.12 mg/kg/injection, schedule: Q04DX003 (ip), vehicle: Klucel (hydroxypropylcellulose) (HPC) 100 % of control | dose: 6.25 mg/kg/injection, schedule: Q04DX003 (ip), vehicle: Klucel (hydroxypropylcellulose) (HPC) 108 % of control | dose: 12.5 mg/kg/injection, schedule: Q04DX003 (ip), vehicle: Klucel (hydroxypropylcellulose) (HPC) 114 % of control | dose: 100.0 mg/kg/injection, schedule: Q04DX003 (ip), vehicle: Klucel (hydroxypropylcellulose) (HPC) 106 % of control
